Test results as given in patent US20260055126A1, “SMALL MOLECULE COMPOUNDS WITH PHOSPHORYLATED ARYL STRUCTURES AND USE THEREOF” (HANGZHOU PHECDAMED CO., LTD., priority 2022, published 2026).
Several values for one entry are separate records, joined by “and”; a condition that tells them apart may be missing. Equal entries are not always repeated.

What was measured:
[1] = tested on: recombinant TEAD1 protein (194-411, Uniprot ID: P28347); test: Thermal shift assay (protein melting point curve), TEAD1; type: binding; set-up: key to the marks not given beside the values; details: 10 μM TEAD protein, 50 μM test compound
Method: (§1) The ability of the compounds to increase the melting point of purified recombinant TEAD1/2/3/4 proteins is tested using a thermal shift assay. The strength of the compound's binding to the protein and the selectivity of the compound's binding to the four TEAD subtypes are evaluated by calculating the melting point shift ΔTm−° C. […] Based on the Δ Tm value, the ability of the compound to bind to the TEAD protein is divided into four levels: ++++, +++, ++, +.
(§2) Test method of protein melting point curve: 10 μL of the protein melting point curve experimental system (10 μM TEAD protein, 50 μM test compound, SYPRO® orange (55692, sigma)) is prepared in a 384-well fluorescence quantitative PCR plate according to the following system, and reacted at 4° C. in the dark for 20 minutes. On-machine reaction: ABI QuantStudio Dx fluorescence quantitative PCR instrument; program: from 25° C. to 80° C., increasing the temperature at a rate of 0.05° C./s, and reading the fluorescence channel signal of the corresponding wavelength of SYPRO® orange every second.

[2] = target: recombinant TEAD4 protein central pocket (Homo sapiens (Human), UniProt Q15561); test: Competitive thiol binding assay (CPM assay), TEAD4; details: 150 nM recombinant TEAD protein, 150 nM CPM
recombinant TEAD4 protein central pocket, sequence (Q15561 whole entry): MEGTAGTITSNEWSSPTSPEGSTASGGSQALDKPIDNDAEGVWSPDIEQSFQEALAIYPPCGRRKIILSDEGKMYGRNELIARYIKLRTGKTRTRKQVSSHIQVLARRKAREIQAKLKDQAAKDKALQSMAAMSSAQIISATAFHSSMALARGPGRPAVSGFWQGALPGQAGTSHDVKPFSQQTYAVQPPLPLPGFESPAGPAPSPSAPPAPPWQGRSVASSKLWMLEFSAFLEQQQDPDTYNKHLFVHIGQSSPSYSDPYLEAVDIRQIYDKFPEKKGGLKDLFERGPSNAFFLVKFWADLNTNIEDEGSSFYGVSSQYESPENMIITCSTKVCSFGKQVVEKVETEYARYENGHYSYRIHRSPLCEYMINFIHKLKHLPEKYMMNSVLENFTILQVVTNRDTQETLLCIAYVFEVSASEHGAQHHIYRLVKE
Method: (§3) Diluting the tested compound in gradient to 5 uL with buffer (25 mM HEPES, 150 mM NaCl, pH6.5), then adding 5 μL of the newly prepared 0.45 uM recombinant TEAD protein solution, and incubating at room temperature for 10 minutes. […] After shaking the plate at room temperature for 1 hour, measuring the fluorescence intensity (Ex/Em: 380/470 nm).

[3] = target: recombinant TEAD1 protein central pocket (Homo sapiens (Human), UniProt P28347); test: Competitive thiol binding assay (CPM assay), TEAD1; details: 150 nM recombinant TEAD protein, 150 nM CPM
recombinant TEAD1 protein central pocket, sequence (P28347 whole entry): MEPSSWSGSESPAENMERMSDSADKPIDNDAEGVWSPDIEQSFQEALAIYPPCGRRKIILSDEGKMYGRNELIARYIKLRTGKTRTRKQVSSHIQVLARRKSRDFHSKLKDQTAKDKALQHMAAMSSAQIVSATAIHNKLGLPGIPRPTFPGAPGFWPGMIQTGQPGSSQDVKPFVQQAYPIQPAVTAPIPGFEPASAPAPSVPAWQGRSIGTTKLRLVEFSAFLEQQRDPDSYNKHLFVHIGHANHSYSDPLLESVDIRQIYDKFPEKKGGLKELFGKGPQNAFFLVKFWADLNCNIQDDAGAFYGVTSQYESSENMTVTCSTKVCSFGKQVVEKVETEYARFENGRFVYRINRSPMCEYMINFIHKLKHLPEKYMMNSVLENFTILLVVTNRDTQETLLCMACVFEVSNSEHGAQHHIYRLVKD
Method: as §3

[4] = target: recombinant TEAD2 protein (218-447, Uniprot ID: Q15562) (Homo sapiens (Human), UniProt Q15562); test: Thermal shift assay (protein melting point curve), TEAD2; type: binding; details: 10 μM TEAD protein, 50 μM test compound
recombinant TEAD2 protein (218-447, Uniprot ID: Q15562), sequence (Q15562 218-447): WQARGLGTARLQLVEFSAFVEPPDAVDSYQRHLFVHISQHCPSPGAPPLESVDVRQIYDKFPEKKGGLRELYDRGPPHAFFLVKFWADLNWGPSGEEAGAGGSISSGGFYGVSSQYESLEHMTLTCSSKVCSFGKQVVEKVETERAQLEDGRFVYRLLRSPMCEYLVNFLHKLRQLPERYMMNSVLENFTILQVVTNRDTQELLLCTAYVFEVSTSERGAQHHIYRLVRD
Method: as §1, §2

[5] = target: recombinant TEAD4 protein (217-434, Uniprot ID: Q15561) (Homo sapiens (Human), UniProt Q15561); test: Thermal shift assay (protein melting point curve), TEAD4; type: binding; details: 10 μM TEAD protein, 50 μM test compound
recombinant TEAD4 protein (217-434, Uniprot ID: Q15561), sequence (Q15561 217-434): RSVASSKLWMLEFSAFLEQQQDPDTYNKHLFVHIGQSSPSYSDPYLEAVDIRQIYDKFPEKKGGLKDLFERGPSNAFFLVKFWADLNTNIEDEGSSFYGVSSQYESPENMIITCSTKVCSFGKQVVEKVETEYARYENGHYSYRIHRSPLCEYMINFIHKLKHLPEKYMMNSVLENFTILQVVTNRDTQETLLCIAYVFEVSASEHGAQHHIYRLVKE
Method: as §1, §2

[6] = target: recombinant TEAD3 protein (218-435, Uniprot ID: Q99594) (Homo sapiens (Human), UniProt Q99594); test: Thermal shift assay (protein melting point curve), TEAD3; type: binding; details: 10 μM TEAD protein, 50 μM test compound
recombinant TEAD3 protein (218-435, Uniprot ID: Q99594), sequence (Q99594 218-435): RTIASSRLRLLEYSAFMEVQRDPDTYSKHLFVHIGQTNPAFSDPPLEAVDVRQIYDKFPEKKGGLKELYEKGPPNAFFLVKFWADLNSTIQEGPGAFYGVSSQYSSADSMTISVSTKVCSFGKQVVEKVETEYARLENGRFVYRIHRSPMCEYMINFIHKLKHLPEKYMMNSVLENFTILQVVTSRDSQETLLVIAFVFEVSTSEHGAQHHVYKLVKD
Method: as §1, §2

[7] = In vitro liver microsome stability, human; type: in vitro ADME; details: for human half-life: human liver microsomes
Method: (§4) Testosterone is selected as the positive reference compound. The specific method is as follows:
(§5) Preparing 0.1MK3 PO4 (pH 7.4) buffer and 3×NADPH stock solution (6 mM, 5 mg/mL), and preheating in a 37° C. water bath; preparing spiking solution of tested compound and control compound: adding 5 μL compound stock solution (10 mM) to 95 μL acetonitrile; preparing 1.5 μM spiking solution in microsomes (0.75 mg/mL): add 1.5 μL spiking solution and 18.75 μL liver microsome solution (20 mg/mL) to 479.75 μL K3PO4 buffer; taking 30 μL spiking solution in microsomes and adding it to the multiwell plate, and incubating at 37° C. for 5 min; adding 15 μL of NADPH stock solution to each well, starting to react, and timing; adding 150 μL of acetonitrile solution containing IS at 0 min, 5 min, 15 min, 30 min, 45 min and 60 min respectively to terminate the reaction; after 10 min of oscillation, centrifuging the reaction at 6000 rpm for 15 min; taking 80 μL of supernatant from each well for LC/MS detection and calculating Ti/2.
(§6) Liver microsomes of mice, rats, dogs, and human used in the experiment are purchased from Xenotech.

[8] = In vitro liver microsome stability, mouse; type: in vitro ADME; details: for mouse half-life: mouse liver microsomes
Method: as §4, §5, §6

TEAD family proteins = test: Thermal shift assay, summary over all TEAD subtypes; type: binding; details: summary of Table 1
Method: as §1, §2

Caco-2 cells = test: Permeability test on Caco2 cells; type: in vitro ADME
Method: After resuscitation, the Caco-2 cells are transferred to a conventional culture dish and cultured in a high-glucose DMEM medium (containing 10% FBS) at 37° C. and 5% CO2 in an incubator. When the cells cover 80% to 95% of the bottom of the dish, they are digested with trypsin containing 0.25% EDTA to disperse them into a single cell suspension, and the cell concentration is determined using a cell counter, after that, the concentration of the cell suspension is adjusted to 2 to 2.5×10^5/mL with fresh culture medium and inoculated into a Transwell polycarbonate membrane 12-well plate, the fresh culture medium is replaced every two days in the first two weeks and once a day in the last week, the culture is continued for 19 to 21 days to obtain a fully differentiated single cell layer.

| Δ T m (TEAD2) [4] | Δ T m (TEAD4) [5] | Δ T m (TEAD3) [6] | Compound | Δ T m (TEAD1) [1] | further results |
| --- | --- | --- | --- | --- | --- |
| ++ | ++++ | ++ | CP(C)(=O)c1ccc(Nc2ccc(C(F)(F)F)cc2)c(-c2nc(OC3COC3)cs2)c1 [Compound 7] | ++++ | IC50 [2]: 250 nM; IC50 [3]: 170 nM; binding ability to each subtype of TEAD family proteins (TEAD family proteins): good binding abilities |
| + | ++++ | + | CCP(=O)(CC)c1ccc(Nc2ccc(C(F)(F)F)cc2)c(-c2nccc(OC3COC3)n2)c1 [Compound 66] | ++++ | IC50 [3]: 140 nM |
| + | ++ | ++ | Cc1nnc(-c2cc(P(C)(C)=O)ccc2Nc2ccc(C(F)(F)F)cc2)o1 [Compound 69] | ++ |  |
| + | +++ | + | CP(C)(=O)c1ccc(NC23CCC(CC2)CC3)c(-c2nccc(OC3COC3)n2)c1 [Compound 38] | +++ |  |
| ++ | ++ | + | CP(C)(=O)c1ccc(Nc2ccc(C(F)(F)F)cc2)c(-c2nnc(CO)o2)c1 [Compound 11] | +++ |  |
| + | + | + | CP(C)(=O)c1ccc(NCc2cc(F)cc(F)c2)c(-c2nccc(OC3COC3)n2)c1 [Compound 62] | ++ |  |
| ++ | ++ | + | CP(C)(=O)c1ccc(Nc2ccc(C(F)(F)F)cc2)c(-c2cn(C3COC3)cn2)c1 [Compound 70] | ++ |  |

Second part, the compound before the results:

| Compound | Δ T m (TEAD2) [4] | Δ T m (TEAD4) [5] | Δ T m (TEAD3) [6] | Δ T m (TEAD1) [1] | further results |
| --- | --- | --- | --- | --- | --- |
| CP(C)(=O)c1ccc(NC2CCC(F)(F)CC2)c(-c2nccc(OC3COC3)n2)c1 [Compound 30] | + | ++ | + | +++ | IC50 [2]: 810 nM; IC50 [3]: 690 nM |
| CP(C)(=O)c1ccc(Nc2ccc(C(F)(F)F)cc2)c(-c2nccc(OC3CCOC3)n2)c1 (stereo not drawn) [Compound 18] | + | +++ | + | ++++ | IC50 [2]: 210 nM; IC50 [3]: 160 nM |
| Cn1cnc(-c2cc(P3(=O)CCNCC3)ccc2Nc2ccc(C(F)(F)F)cc2)c1 [Compound 1] | +++ | +++ | ++ | +++ | metabolic stability ([7]; human liver microsome environment): good metabolic stabilities; human half-life [7]: 5.98 h; metabolic stability ([8]; mouse liver microsome environment): good metabolic stabilities; mouse half-life [8]: 1.56 h |
| CNC(=C[N+](=O)[O-])NCCSCc1ccc(CN(C)C)o1 [ranitidine] |  |  |  |  | Papp average value (Caco-2 cells; AP→BL, n = 2): 1.84 10^−6 cm/s; Papp (Caco-2 cells; AP→BL, single replicate): 1.99 10^−6 cm/s and 1.69 10^−6 cm/s; Receiving chamber concentration Area ratio/OD (Caco-2 cells; AP→BL, single replicate): 3.32 and 2.82; Penetration Type (Caco-2 cells; Caco2 cell model): Medium |
| CP(C)(=O)c1ccc(Nc2ccc(S(F)(F)(F)(F)F)cc2)c(-c2nccc(OC3COC3)n2)c1 [Compound 74] | + | ++++ | + | ++++ | IC50 [2]: 210 nM; IC50 [3]: 190 nM |
| CP(C)(=O)c1cc(-c2nccc(OC3COC3)n2)c(Nc2ccc(C(F)(F)F)cc2)s1 [Compound 24] | ++ | ++++ | + | ++++ | IC50 [2]: 290 nM; IC50 [3]: 180 nM |
| CP(C)(=O)c1ccc(Nc2ccc(C(F)(F)F)cc2)c(-c2nccc(N3CC[C@H](O)C3)n2)c1 [Compound 9] | ++ | +++ | + | +++ | human half-life [7]: 0.488 h; mouse half-life [8]: 1.43 h |
| CP(C)(=O)c1ccc(Nc2ccc(C(F)(F)F)cc2)c(-c2nccc(OC(F)F)n2)c1 [Compound 65] | ++ | ++ | + | +++ |  |
| Cc1nnc(-c2cc(P(C)(C)=O)ccc2NCc2ccc(C(F)(F)F)cc2)o1 [Compound 4] | ++ | + | ++ | +++ |  |
| CP(C)(=O)c1ccc(Nc2ccc(Br)cc2)c(-c2nccc(OC3COC3)n2)c1 [Compound 26] | ++ | ++++ | + | ++++ |  |
| CP(C)(=O)c1ccc(Nc2ccc(C(F)(F)F)cc2)c(-c2nnn(Cc3ccccn3)n2)c1 [Compound 3] | + | ++ | + | +++ |  |
| CP(C)(=O)c1ccc(NCC2CCC(C(F)(F)F)CC2)c(-c2ncccn2)c1 (stereo not drawn) [Compound 46] | ++ | ++ | ++ | +++ |  |
| CP(C)(=O)c1ccc(NCc2ccc(C(F)(F)F)cc2)c(-n2cc(C3CCOCC3)cn2)c1 [Compound 58] | + | + | + | ++ |  |
| O=P1(c2ccc(Nc3ccc(C(F)(F)F)cc3)c(-c3nccc(OC4COC4)n3)c2)CCNCC1 [Compound 60] | + | ++ | + | +++ |  |
